We go through 1 compound from patent publication US20120165384A1, “INHIBITION OF HISTONE ACETYLTRANSFERASES BY CTK7A AND METHODS THEREOF” (JAWAHARLAL NEHRU CENTRE FOR ADVANCED SCIENTIFIC RESEARCH, priority 2009, published 2012).

The target of series [1] is HDAC1 (Homo sapiens, UniProt Q13547). As to the kind of experiment: Histone deacetylase assay, HDAC1. The format is biochemical. The settings on record: even at 100 μM. How it is done:
The deacetylation assay was performed as per standard protocol^31. For SirT2 deacetylase assay, 50 ng of bacterially expressed, recombinant enzyme was added in the presence or absence of cofactor NAD^+. HMTase was performed as reported earlier^31.

The target in series [2] is T1, full length p300 (Homo sapiens, UniProt Q09472).
T1 construct: hexahistidine; made in house; host or cells: baculovirus-infected Sf21 cells
Briefly: p300 autoacetylation assay in vitro (3H-acetyl CoA, fluorography/autoradiography). The format is biochemical. The settings on record: in vitro, concentration dependent. How it is done: HAT gel fluorography/autoradiography assays were performed as previously reported^30. Kinetic analysis of p300 HAT inhibition was performed as reported earlier^31 in the presence of (0, 30 and 50 μM) CTK7A. The obtained values were plotted as a lineweaver burk plot using Graphpad Prism software. For p300 Autoacetylation assay, reactions of p300 full length (80 ng) were carried out in HAT assay buffer at 30° C. for 10 minutes with or without the protein (NPM1) followed by addition of 1 μl of 4.7 Ci/mmol [^3H] acetyl CoA (NEN-PerkinElmer) and were further incubated for another 10 min in a 30 μl reaction. GAPDH was used as positive control. The radio-labeled acetylated p300 were processed by fluorography followed by autoradiography.

The test system of series [3] is KB cells. Briefly: FACS cell cycle analysis. The format is cell-based. As to conditions: 24 h, concentration dependent. How it is done: KB cells were grown in the presence or absence of CTK7A for 24 h with the indicated concentration. Cells were grown in presence of CTK7A for 2 h in absence of serum followed by addition of 10% Serum. Briefly cells were harvested by mild trypsinization (0.25%) followed by centrifugation at 2000 rpm for 10 minutes at 4° C. Cells were washed with cold PBS by centrifugation at 2000 rpm for 10 minutes at 4° C. Cells were fixed in cold 70% Ethanol which was added drop wise along with mild vortexing.
Samples were left for 12 hrs, after which Ethanol was removed followed by two washes in cold PBS. RNase (100 μg/ml) treatment was subsequently given at 37° C./30 minutes to ensure only DNA staining. 50 μg/ml Propidium Iodide was added for staining. Cells were sorted and analyzed by flow cytometry for the cell cycle distribution using inbuilt software of BD FACScalibur instrument. Analysis was done in FL2 channel.

For series [4], the system named is KB cells. As to the kind of experiment: Senescence-associated β-gal (SA-β-gal) activity analysis. The format is cell-based. On the procedure: SA-β-gal activity was analyzed in KB cells as described earlier^47.
Series [5] in a line: Toxicity in mice after intraperitoneal administration. The format is in vivo. On the procedure:
The in vitro and cell line based studies prompted us to study the role of CTK7A in xenograft mice. […] In order to test the effect of CTK7A on tumor growth, KB cells (2×10^6 cells) were inoculated in nude mice in the right and left flanks, respectively and treated them intraperitoneally with 100 mg/kg body weight/twice a day (for detail see Materials and Methods). […] KB cell tumors were 50% smaller in mice treated with CTK7A than in control untreated mice. The differences in the tumor size between xenografts (Control vs treated) was statistically significant (p<0.05). The levels of H3 acetylation and that of other proteins (e.g. NPM1, GAPDH, p300) were determined using IHC. […] It was observed that CTK7A decreased the levels of H3K9, K14 acetylation (as probed by H3AcK9AcK14) and ac-p300 (FIG. 6b and FIG. 6c). Further to see the site specific effect of CTK7A mediated HAT inhibition on histone acetylation, IHC was done with site specific antibodies. […] Moreover, the levels of COX2, which is induced in many cell types by mitogens, growth factors, cytokine and tumor promoters and has been implicated in many cancers, including oral cancer was also found to be suppressed in CTK7A treated tumors (FIG. 6b).

Series [6] deals with KB cell xenografts. As to the kind of experiment: Xenograft growth assay. The settings on record: i.p. 100 mg/kg body weight/twice a day; p<0.05. The format is in vivo, nude mice (BALB/c). On the procedure:
Animal experiments were performed with the approval by authorized ethics Committee. Sixteen nude mice (BALB/c) were included in the experiments (10 male and 6 female mice). Mice were kept in isolators in a pathogen free environment. All nude mice were 3-4 weeks old at the start of the experiments. KB cells, 2×10^6 cells were inoculated in each mice in the right and left flanks, respectively. Mice were then divided in two groups (5 males and 3 females) in each group. After the tumors grown to palpable in size, CTK7A treatment were given intraperitoneally (i.p) with 100 mg/kg body weight/twice a day. Tumors were measured once in three days with a caliper and their volumes were calculated by the formula: 0.52×D1×(D2)^2, where ‘D1’ and ‘D2’ are, respectively, the longest and shortest dimension. The last dose of the compound (CTK7A) was administered four hour before sacrificing it. Tumors were removed and put into liquid nitrogen or were fixed in 10% formalin for 1-2 h to make blocks to be used for IHC. For comparing tumor sizes between treated and control one-way ANOVA was performed using “Sigmaplot Software”. P-value<0.05 was considered as statistically significant.

The nature of series [7]: Solubility test in water. In kind it is physicochemical. On the procedure:
To a solution of curcumin in methanol (10 mg, 0.027 Mmol) […]. After incubation for 24 h, the solvent was evaporated in vacuum. The residue […] was purified with repeated recrystallization and filtration method using TLC (CHCl3/MeOH=4:1; Rf=0.5). This gave CTK7 as a dark orange powder (7.18 mg, 55%) which was analyzed by H^1 NMR, Melting point test, Solubility test and ESI-MS.
To a solution of CTK7 in methanol (50 mg, 0.1031 mmol), (10 ml) of Sodium ethoxide was added ([…], 0.1175 mmol) and the reaction mixture was stirred at room temperature for 90 minutes. The solvent was evaporated in vacuum and the residue was washed with hexane, diethyl ether and ethyl acetate. Product was confirmed through H^1 NMR, Solubility test, melting point.

Sequence of HDAC1 (Q13547 whole entry, species assumed): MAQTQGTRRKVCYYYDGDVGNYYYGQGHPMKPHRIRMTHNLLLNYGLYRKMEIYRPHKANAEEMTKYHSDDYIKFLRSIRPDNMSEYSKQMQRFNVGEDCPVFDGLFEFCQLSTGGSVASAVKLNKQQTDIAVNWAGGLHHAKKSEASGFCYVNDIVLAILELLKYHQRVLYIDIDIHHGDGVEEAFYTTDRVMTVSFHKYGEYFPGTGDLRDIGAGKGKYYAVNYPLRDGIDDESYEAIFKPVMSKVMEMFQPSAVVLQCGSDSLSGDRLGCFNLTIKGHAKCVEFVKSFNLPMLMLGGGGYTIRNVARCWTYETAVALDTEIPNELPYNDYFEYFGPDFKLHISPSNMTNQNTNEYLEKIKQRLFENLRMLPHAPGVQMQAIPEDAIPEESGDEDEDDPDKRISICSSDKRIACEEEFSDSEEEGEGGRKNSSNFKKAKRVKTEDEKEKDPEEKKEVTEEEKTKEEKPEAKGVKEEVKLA
T1 sequence (Q09472 whole entry, species assumed): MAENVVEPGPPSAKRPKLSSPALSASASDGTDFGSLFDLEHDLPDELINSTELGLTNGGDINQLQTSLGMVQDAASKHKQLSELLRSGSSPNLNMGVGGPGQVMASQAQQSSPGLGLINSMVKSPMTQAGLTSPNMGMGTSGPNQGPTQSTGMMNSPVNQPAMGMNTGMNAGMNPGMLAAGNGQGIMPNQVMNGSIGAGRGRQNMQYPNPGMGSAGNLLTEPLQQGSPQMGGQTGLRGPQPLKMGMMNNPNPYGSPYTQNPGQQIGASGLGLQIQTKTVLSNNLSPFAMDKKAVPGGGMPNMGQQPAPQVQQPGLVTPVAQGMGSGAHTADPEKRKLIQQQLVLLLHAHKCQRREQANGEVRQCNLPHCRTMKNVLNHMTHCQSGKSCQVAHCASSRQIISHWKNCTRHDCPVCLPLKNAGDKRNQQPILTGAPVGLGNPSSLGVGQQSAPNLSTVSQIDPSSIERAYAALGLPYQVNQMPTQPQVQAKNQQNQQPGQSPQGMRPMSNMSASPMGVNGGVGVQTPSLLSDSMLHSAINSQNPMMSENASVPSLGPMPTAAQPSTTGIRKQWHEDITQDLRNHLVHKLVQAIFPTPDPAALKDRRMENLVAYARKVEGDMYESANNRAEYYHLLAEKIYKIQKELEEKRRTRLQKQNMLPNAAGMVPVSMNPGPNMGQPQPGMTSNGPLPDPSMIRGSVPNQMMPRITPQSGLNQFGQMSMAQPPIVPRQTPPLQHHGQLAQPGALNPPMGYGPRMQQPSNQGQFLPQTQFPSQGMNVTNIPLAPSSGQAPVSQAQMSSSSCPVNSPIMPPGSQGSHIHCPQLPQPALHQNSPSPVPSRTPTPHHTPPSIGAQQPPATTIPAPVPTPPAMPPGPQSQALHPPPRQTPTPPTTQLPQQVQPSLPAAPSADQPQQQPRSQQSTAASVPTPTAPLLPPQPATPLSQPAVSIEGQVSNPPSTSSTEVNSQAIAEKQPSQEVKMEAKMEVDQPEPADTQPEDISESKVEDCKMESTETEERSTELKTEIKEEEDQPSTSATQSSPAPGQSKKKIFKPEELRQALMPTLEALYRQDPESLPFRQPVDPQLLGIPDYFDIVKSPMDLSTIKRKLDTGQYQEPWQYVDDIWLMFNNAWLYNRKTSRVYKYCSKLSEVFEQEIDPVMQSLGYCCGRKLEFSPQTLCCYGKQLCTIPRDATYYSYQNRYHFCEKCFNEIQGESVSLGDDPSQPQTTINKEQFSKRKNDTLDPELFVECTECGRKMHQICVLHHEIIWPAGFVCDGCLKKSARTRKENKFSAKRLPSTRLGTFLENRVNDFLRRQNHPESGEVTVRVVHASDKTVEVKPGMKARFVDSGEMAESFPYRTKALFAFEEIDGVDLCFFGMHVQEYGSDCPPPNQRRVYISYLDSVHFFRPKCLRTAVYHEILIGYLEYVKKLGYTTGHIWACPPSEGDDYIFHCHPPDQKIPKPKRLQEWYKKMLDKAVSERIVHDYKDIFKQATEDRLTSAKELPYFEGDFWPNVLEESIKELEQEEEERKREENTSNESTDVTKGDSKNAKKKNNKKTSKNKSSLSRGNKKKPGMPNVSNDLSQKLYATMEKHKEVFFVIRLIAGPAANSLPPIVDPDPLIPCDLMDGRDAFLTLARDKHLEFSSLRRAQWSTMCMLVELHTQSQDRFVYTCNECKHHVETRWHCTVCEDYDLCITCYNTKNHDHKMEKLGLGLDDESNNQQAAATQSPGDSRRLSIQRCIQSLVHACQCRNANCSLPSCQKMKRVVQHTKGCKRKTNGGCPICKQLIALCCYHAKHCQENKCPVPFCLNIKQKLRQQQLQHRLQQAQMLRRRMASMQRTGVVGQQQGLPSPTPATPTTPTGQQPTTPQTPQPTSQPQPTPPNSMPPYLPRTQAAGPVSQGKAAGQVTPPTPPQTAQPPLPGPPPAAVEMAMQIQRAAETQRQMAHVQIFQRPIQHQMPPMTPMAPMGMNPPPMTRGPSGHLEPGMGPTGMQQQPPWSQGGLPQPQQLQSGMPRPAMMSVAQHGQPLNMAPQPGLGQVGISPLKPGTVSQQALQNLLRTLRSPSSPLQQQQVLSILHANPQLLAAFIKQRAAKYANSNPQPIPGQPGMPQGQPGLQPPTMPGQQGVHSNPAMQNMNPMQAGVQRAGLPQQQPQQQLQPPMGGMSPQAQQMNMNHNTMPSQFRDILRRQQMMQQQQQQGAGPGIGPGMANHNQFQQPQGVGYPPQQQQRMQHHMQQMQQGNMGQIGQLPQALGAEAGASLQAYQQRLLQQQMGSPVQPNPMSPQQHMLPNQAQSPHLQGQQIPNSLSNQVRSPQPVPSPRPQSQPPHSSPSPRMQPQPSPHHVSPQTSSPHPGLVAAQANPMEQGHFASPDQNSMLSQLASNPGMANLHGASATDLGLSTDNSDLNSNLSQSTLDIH

`COc1cc([O-])cc(C=CC2=NN(c3ccc(C(=O)[O-])cc3)C(C=Cc3cc([O-])cc(OC)c3)C2)c1.[Na+].[Na+].[Na+]` (centres unmarked) [CTK7A, Sodium 4-(3,5-bis(3-methoxy-5-oxidostyryl)-4,5dihydro-1H-pyrazole-1-yl)benzoate]: the “effect on HDAC1 activity” value in series [1] was “unaffected”. For the same compound, the “inhibition of p300 autoacetylation” value in series [2] is reported as “inhibit”. Besides, the “percentage of polyploid cells (>4N)” value in series [3] was “dramatic increase”. In addition, the “expression of senescence associated beta-galactosidase (SA-β-gal)” value in series [4] is “induced”. Also, the body weight loss entry in series [5] (doses up to 100 mg/kg body weight/twice a day during 1 month) is “no observed weight loss”. The toxicity to mice entry in series [5] (intraperitoneal (i.p) administration) is reported as “not toxic”. In series [6], the “KB cell tumors smaller than in control untreated mice” value is given as 50%. Also, the solubility in water entry in series [7] was “Soluble”.
